According to publication PMC11480411, “Mucosal sugars delineate pyrazine vs pyrazinone autoinducer signaling in Klebsiella oxytoca” (Nature Communications, 2024):
Values joined by “and” are separate entries in the source; they are usually repeats but may differ in a detail not shown here. Identical values can stand only once. Values belong to the compound of their own block, whether it stands above or below them.

Key:
[1] = system: leup operon (leupeptin BGC) promoter in K. oxytoca ATCC 8724; experiment: GFP-based transcriptional reporter for the leup operon; type: cell-based, Klebsiella oxytoca; conditions: carbohydrate screen, M9 + casamino acid + 0.4% indicated sugar, 30 °C, 24 h; for GFP fluorescence, GFP Strain + Media: leup GFP reporter strain; for GFP fluorescence, WT + Media: wildtype K. oxytoca without reporter (background)
Description: We previously examined a panel of 84 clinical K. oxytoca isolates (including recently renamed Klebsiella michiganensis isolates) for the presence of either the leup operon or npsB, an NRPS of the tilimycin/tilivalline gene cluster. […] While the roles of tilivalline and tilimycin in hemorrhagic colitis are well studied[8],[9], the operon for leupeptin biosynthesis is “silent” in K. oxytoca under typical laboratory culture conditions (i.e., leupeptin production is undetectable). Therefore, our study commenced by exploring growth conditions required to trigger leupeptin biosynthesis in K. oxytoca. To achieve this, we generated a green fluorescent protein (GFP)-based reporter system to monitor leup transcription in K. oxytoca ATCC 8724 (recently renamed as Klebsiella michiganensis (ATCC 8724), Fig. 1a). We utilized λ-red recombineering techniques[38] to replace the first biosynthetic gene (leupA) of the leupeptin BGC with a GFP-spectinomycin resistance cassette. […] Consequently, conditions that elicit transcription of the leupeptin BGC can be monitored by GFP fluorescence intensity.
5 mL of the leupeptin reporter strain was cultured aerobically in 10 g/L of LB (Becton Dickinson), yeast extract, GAM (HiMedia Laboratories), horse liver extract (HiMedia Laboratories), malt extract (VWR), meat extract (HiMedia Laboratories), YPD (Dot Scienticifc), brain heart infusion (Becton Dickinson), porcine mucin (Sigma-Aldrich, M1778), clostridial (Becton Dickinson), TSB (VWR), or casamino acid supplemented (5 g/L, VWR) M9 minimal salts (MP Biomedicals) at 30 °C for 24 h at 250 rpm. Cultures were lysed via sonication, centrifuged, and 150 µL of the supernatants were aliquoted into black well clear bottom 96 well plates. GFP fluorescence measurements were performed on a BioTek Synergy H1 plate reader with an excitation wavelength of 488 nm and an emission wavelength of 525 nm. For the carbohydrate screen, the leupeptin reporter strain was cultured in M9 minimal medium (MPbio) supplemented with casamino acid (5 g/L, VWR) and 0.4% indicated sugar aerobically at 30 °C for 24 h at 250 rpm.

[2] = target: T1, HRH1 (Homo sapiens, UniProt P35367); experiment: PRESTO-Tango GPCR screen and dose-response; type: cell-based; conditions: replicate wells
T1 construct: expressed in transfected cells; host or cells: HTLA cells (HEK293 line stably expressing β-arrestin-TEV and tTA-Luciferase)
T1 sequence (P35367 whole entry): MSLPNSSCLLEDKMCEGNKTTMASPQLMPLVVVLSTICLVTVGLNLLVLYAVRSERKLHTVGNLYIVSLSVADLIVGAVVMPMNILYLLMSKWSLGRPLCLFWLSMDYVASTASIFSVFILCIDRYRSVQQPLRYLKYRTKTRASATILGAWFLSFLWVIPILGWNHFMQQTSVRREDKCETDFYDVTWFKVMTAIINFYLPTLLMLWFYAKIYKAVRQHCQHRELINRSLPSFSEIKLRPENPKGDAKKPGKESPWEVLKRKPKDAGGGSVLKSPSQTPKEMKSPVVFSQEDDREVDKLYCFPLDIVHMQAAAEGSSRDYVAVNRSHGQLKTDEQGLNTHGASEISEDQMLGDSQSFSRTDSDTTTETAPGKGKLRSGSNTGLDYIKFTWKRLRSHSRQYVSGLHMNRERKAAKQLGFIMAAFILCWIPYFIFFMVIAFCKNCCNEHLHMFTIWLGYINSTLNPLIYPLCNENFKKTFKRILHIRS
Description: (§1) The PRESTO-Tango analyses were performed as previously published. Briefly, HTLA cells, a HEK293 cell line that stably expresses β-arrestin-TEV and tTA-Luciferase (a kind gift from Gilad Barnea, Brown University), were plated in 96-well tissue culture plates (Eppendorf) in DMEM containing 10% FBS and 1% Penicillin/Streptomycin. One day after plating (after reaching approximately 90% confluence), 200 ng per well GPCR-Tango plasmids[37] in 20 μL DMEM were individually mixed with 400 ng polyethylenimine (Polysciences) in an equal volume of DMEM and incubated for 20 min at room temperature before adding the transfection mixture to the HTLA cells. 16-24 h after transfection, medium was replaced with 180 μL fresh DMEM containing 1% Penicillin/Streptomycin and 10 mM HEPES and 20 μL of 3 or 3-Homo to reach a final concentration of 100 μM. Supernatants were aspirated 20 h after stimulation and 50 μl per well of Bright-Glo solution (Promega) diluted 20-fold with PBS containing 20 mM HEPES was added into each well. After 15 min incubation at room temperature, luminescence was quantified using a Spectramax i3x microplate reader (Molecular Devices). Activation fold for each sample was calculated by dividing relative luminescence units (RLU) for each condition by RLUs from PBS control. Dose response curves of each chemical were performed in a similar way with varying the ligand concentration from 10^−4 M to 10^−15 M.

[3] = target: T2, histamine receptor H4 (HRH4) (Homo sapiens, UniProt Q9H3N8); experiment: PRESTO-Tango GPCR screen and dose-response; type: cell-based; conditions: replicate wells
T2 construct: expressed in transfected cells; host or cells: HTLA cells (HEK293 line stably expressing β-arrestin-TEV and tTA-Luciferase)
Description: as §1

[4] = target: T3, HRH2 (Homo sapiens, UniProt P25021); experiment: PRESTO-Tango GPCR screen and dose-response; type: cell-based; conditions: replicate wells
T3 construct: expressed in transfected cells; host or cells: HTLA cells (HEK293 line stably expressing β-arrestin-TEV and tTA-Luciferase)
T3 sequence (P25021 whole entry): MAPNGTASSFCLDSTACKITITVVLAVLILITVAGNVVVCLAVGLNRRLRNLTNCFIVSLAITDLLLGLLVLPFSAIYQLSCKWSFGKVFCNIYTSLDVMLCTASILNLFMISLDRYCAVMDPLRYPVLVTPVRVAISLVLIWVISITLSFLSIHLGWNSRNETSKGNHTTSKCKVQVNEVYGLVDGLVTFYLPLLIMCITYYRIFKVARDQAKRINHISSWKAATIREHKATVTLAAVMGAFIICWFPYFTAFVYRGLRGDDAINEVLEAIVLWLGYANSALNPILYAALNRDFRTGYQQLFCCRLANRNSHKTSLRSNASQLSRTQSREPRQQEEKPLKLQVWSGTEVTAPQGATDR
Description: as §1

Compound: OC[C@H]1OC(O)[C@H](O)[C@@H](O)[C@@H]1O (stereo partly drawn) [Glucose]
- GFP fluorescence, GFP Strain + Media [1]: 9593 RFU
- GFP fluorescence, WT + Media [1]: 8596 RFU

Compound: O[C@@H]1[C@@H](O)[C@@H](O)CO[C@H]1O [Arabinose]
- GFP fluorescence, GFP Strain + Media [1]: 9484 RFU
- GFP fluorescence, WT + Media [1]: 6365 RFU

Compound: CC(=O)N[C@H]1C(O)O[C@H](CO)[C@H](O)[C@@H]1O (stereo partly drawn) [GalNAc]
- GFP fluorescence, GFP Strain + Media [1]: 9643 RFU
- GFP fluorescence, WT + Media [1]: 8779 RFU

Compound: OC[C@@H](O)[C@@H](O)[C@H](O)[C@@H](O)CO [Sorbital]
- GFP fluorescence, GFP Strain + Media [1]: 10051 RFU
- GFP fluorescence, WT + Media [1]: 6226 RFU

- HRH1 dose-response raw reporter signal (Fig. 5b source data) ([2]; Log(10)Conc (M) -4): 81577 and 82137
- HRH1 dose-response raw reporter signal (Fig. 5b source data) ([2]; Log(10)Conc (M) -5): 78216 and 78255
- HRH1 dose-response raw reporter signal (Fig. 5b source data) ([2]; Log(10)Conc (M) -6): 75259 and 78673
- HRH1 dose-response raw reporter signal (Fig. 5b source data) ([2]; Log(10)Conc (M) -7): 76949 and 75622
- HRH1 dose-response raw reporter signal (Fig. 5b source data) ([2]; Log(10)Conc (M) -8): 67606 and 69585
- HRH1 dose-response raw reporter signal (Fig. 5b source data) ([2]; Log(10)Conc (M) -9): 52047 and 52194
- HRH1 dose-response raw reporter signal (Fig. 5b source data) ([2]; Log(10)Conc (M) -10): 45399 and 45284
- HRH1 dose-response raw reporter signal (Fig. 5b source data) ([2]; Log(10)Conc (M) -11): 44193 and 43739
- HRH1 dose-response raw reporter signal (Fig. 5b source data) ([2]; Log(10)Conc (M) -12): 45001 and 44441
- HRH1 dose-response raw reporter signal (Fig. 5b source data) ([2]; Log(10)Conc (M) -13): 46307 and 47693
- HRH1 dose-response raw reporter signal (Fig. 5b source data) ([2]; Log(10)Conc (M) -14): 46469 and 45317
- HRH1 dose-response raw reporter signal (Fig. 5b source data) ([2]; Log(10)Conc (M) -15): 42643 and 42151
- HRH4 dose-response raw reporter signal (Fig. 5b source data) ([3]; Log(10)Conc (M) -5): 20161 and 21099
- HRH4 dose-response raw reporter signal (Fig. 5b source data) ([3]; Log(10)Conc (M) -6): 15058 and 15677
- HRH4 dose-response raw reporter signal (Fig. 5b source data) ([3]; Log(10)Conc (M) -7): 3788 and 3862
- HRH4 dose-response raw reporter signal (Fig. 5b source data) ([3]; Log(10)Conc (M) -8): 887 and 1023
- HRH4 dose-response raw reporter signal (Fig. 5b source data) ([3]; Log(10)Conc (M) -9): 590 and 625
- HRH4 dose-response raw reporter signal (Fig. 5b source data) ([3]; Log(10)Conc (M) -10): 537 and 513
- HRH4 dose-response raw reporter signal (Fig. 5b source data) ([3]; Log(10)Conc (M) -11): 475
- HRH4 dose-response raw reporter signal (Fig. 5b source data) ([3]; Log(10)Conc (M) -12): 433 and 407
- HRH4 dose-response raw reporter signal (Fig. 5b source data) ([3]; Log(10)Conc (M) -13): 377 and 419
- HRH4 dose-response raw reporter signal (Fig. 5b source data) ([3]; Log(10)Conc (M) -14): 545 and 448
- HRH4 dose-response raw reporter signal (Fig. 5b source data) ([3]; Log(10)Conc (M) -15): 245
- HRH2 dose-response raw reporter signal (Fig. 5b source data) ([4]; Log(10)Conc (M) -4): 3877 and 3933 and 3726
- HRH2 dose-response raw reporter signal (Fig. 5b source data) ([4]; Log(10)Conc (M) -5): 699 and 758 and 693
- HRH2 dose-response raw reporter signal (Fig. 5b source data) ([4]; Log(10)Conc (M) -6): 144 and 156 and 139
- HRH2 dose-response raw reporter signal (Fig. 5b source data) ([4]; Log(10)Conc (M) -7): 56 and 88 (2×)
- HRH2 dose-response raw reporter signal (Fig. 5b source data) ([4]; Log(10)Conc (M) -8): 94 and 91 and 50
- HRH2 dose-response raw reporter signal (Fig. 5b source data) ([4]; Log(10)Conc (M) -9): 62 and 56 and 65
- HRH2 dose-response raw reporter signal (Fig. 5b source data) ([4]; Log(10)Conc (M) -10): 59 and 68 and 77
- HRH2 dose-response raw reporter signal (Fig. 5b source data) ([4]; Log(10)Conc (M) -11): 53 and 68 and 38
- HRH2 dose-response raw reporter signal (Fig. 5b source data) ([4]; Log(10)Conc (M) -12): 50 and 56 and 88
- HRH2 dose-response raw reporter signal (Fig. 5b source data) ([4]; Log(10)Conc (M) -13): 44 and 77 and 100
- HRH2 dose-response raw reporter signal (Fig. 5b source data) ([4]; Log(10)Conc (M) -14): 44 and 83 and 77
- HRH2 dose-response raw reporter signal (Fig. 5b source data) ([4]; Log(10)Conc (M) -15): 32 and 47 and 38
Compound: NCCc1c[nH]cn1 [Histamine, histamine, reference compound]

Compound: O=C[C@H](O)[C@@H](O)[C@H](O)CO [Xylose]
- GFP fluorescence, GFP Strain + Media [1]: 9892 RFU
- GFP fluorescence, WT + Media [1]: 5418 RFU
